Test system: Myo5 SH3 domain
Assay: SPOT analysis of cellulose-bound peptides (WISE), Myo5 SH3 domain (Dataset S4)
Type: binding, Saccharomyces cerevisiae
Settings: for The normalized value in BLU units: Myo5 SH3 domain
[1] = SPOT analysis of membrane-synthesized peptides probed with Myo5 SH3 domain, normalized value
[2] = SPOT analysis of membrane-bound peptides, normalized value (see methods)
[3] = SPOT analysis of cellulose-bound peptides probed with Myo5 SH3 domain, normalized value
[4] = SPOT analysis of cellulose-bound 14-mer yeast proteome peptides, normalized value, mean where the peptide was synthesized more than once

LNQSKGQPFQPSPT
The normalized value in BLU units (SPOT analysis, Myo5 SH3) [1]: 254.7 BLU

LNRKKVTPQLPKVT
The normalized value in BLU units [2]: 499.8 BLU

LNRQKNYPDAPAIF
The normalized value in BLU units (SPOT analysis, Myo5 SH3) [1]: 86.4 BLU

LNTMKKRPAPPSLP
The normalized value in BLU units (SPOT analysis, Myo5 SH3) [1]: 22346.5 BLU

LPAPPPPPRRGPA
The normalized value in BLU units (SPOT analysis, Myo5 SH3) [3]: 43350 BLU

LPAVFSAPIRPDIV
The normalized value in BLU units [4]: 201.8 BLU

LPEELMRPKVPELL
The normalized value in BLU units (SPOT analysis, Myo5 SH3) [3]: 145.4 BLU

LPEKKNSPTTPSVF
The normalized value in BLU units [2]: 102.5 BLU

LPEPRFYPLSPKNN
The normalized value in BLU units [2]: 289.3 BLU

LPFMYLLPRFPSHI
The normalized value in BLU units (SPOT analysis, Myo5 SH3) [3]: 454.8 BLU

LPFPRKNPKLPENT
The normalized value in BLU units (SPOT analysis, Myo5 SH3) [1]: 147.2 BLU

LPKLKSNPSVPHLH
The normalized value in BLU units [4]: 193.1 BLU

LPLPKLRPPRPTFA
The normalized value in BLU units (SPOT analysis, Myo5 SH3) [1]: 77883.2 BLU

LPLSRVQPVQPSQT
The normalized value in BLU units (SPOT analysis, Myo5 SH3) [1]: 122.5 BLU

LPQQHLSPLIPIAI
The normalized value in BLU units [4]: 45.3 BLU

LPTALLSPLRPSLC
The normalized value in BLU units [4]: 115.0 BLU

LPTGYYEPMKPSSL
The normalized value in BLU units (SPOT analysis, Myo5 SH3) [3]: 164.9 BLU

LQESKTVPQSPKKP
The normalized value in BLU units (SPOT analysis, Myo5 SH3) [1]: 159.2 BLU

LQNAKNDPLPPVIE
The normalized value in BLU units (SPOT analysis, Myo5 SH3) [1]: 58.8 BLU

LQQRRYYPIFPGSI
The normalized value in BLU units (SPOT analysis, Myo5 SH3) [1]: 278.7 BLU

LQYHKKNPYSPLFS
The normalized value in BLU units [4]: 317.8 BLU

LRISKPDPECPSKL
The normalized value in BLU units (SPOT analysis, Myo5 SH3) [1]: 246.3 BLU

LSFDRPPPLTPEKN
The normalized value in BLU units (SPOT analysis, Myo5 SH3) [1]: 174.4 BLU

LSGTRLVPNCPLLW
The normalized value in BLU units [4]: 431.8 BLU

LSKLRLSPENPSNT
The normalized value in BLU units (SPOT analysis, Myo5 SH3) [1]: 157.2 BLU

LSKVRGRPMYPRPA
The normalized value in BLU units [2]: 752.4 BLU

LSPAKARPSFPHND
The normalized value in BLU units (SPOT analysis, Myo5 SH3) [1]: 212.8 BLU

LSRSKPLPLTPNSK
The normalized value in BLU units (SPOT analysis, Myo5 SH3) [1]: 323.9 BLU

LSYLKDLPFVPFLF
The normalized value in BLU units [2]: 213.0 BLU

LTIFKRPPKQPGHQ
The normalized value in BLU units [2]: 702.9 BLU

LTKIRRRPQQPLTD
The normalized value in BLU units (SPOT analysis, Myo5 SH3) [1]: 393.3 BLU

LTLTKWDPSKPISL
The normalized value in BLU units [2]: 231.0 BLU

LTSFKGRPKPPKTL
The normalized value in BLU units [2]: 327.7 BLU

LTSVKIVPQRPISD
The normalized value in BLU units [4]: 89.0 BLU

LVGLKYEPLFPYFA
The normalized value in BLU units [2]: 124.8 BLU

LVGMRSFPLYPSGL
The normalized value in BLU units [2]: 385.7 BLU

LVPSKAIPPLPQLD
The normalized value in BLU units [4]: 558.2 BLU

LWILYMSPDVPSAS
The normalized value in BLU units (SPOT analysis, Myo5 SH3) [3]: 252.6 BLU

LWKPLVYPTCPSEH
The normalized value in BLU units (SPOT analysis, Myo5 SH3) [3]: 185.3 BLU

LWRPRIVPILPYIT
The normalized value in BLU units [4]: 1051.3 BLU

LYREREEPPLPKRI
The normalized value in BLU units [4]: 112.3 BLU

MAEFRRVPLPPMAE
The normalized value in BLU units [4]: 442.6 BLU

MAFIKILPNNPWPF
The normalized value in BLU units (SPOT analysis, Myo5 SH3) [1]: 59.9 BLU

MAKSFADPRVPQPM
The normalized value in BLU units (SPOT analysis, Myo5 SH3) [3]: 172.2 BLU

MANILYYPQKPLGT
The normalized value in BLU units (SPOT analysis, Myo5 SH3) [3]: 152.5 BLU

MASFLPVPEKPNLI
The normalized value in BLU units [4]: 161.0 BLU

MASGLLPPIQPGFD
The normalized value in BLU units (SPOT analysis, Myo5 SH3) [3]: 223.0 BLU

MDGIKELPEFPIKK
The normalized value in BLU units [2]: 138.4 BLU

MDKFRIPPKSPNIE
The normalized value in BLU units (SPOT analysis, Myo5 SH3) [1]: 222.0 BLU

MDMDRNVPLAPNLN
The normalized value in BLU units [2]: 91.4 BLU

MEEPFIWPEEPRPD
The normalized value in BLU units [4]: 79.7 BLU

MFELLCHPKVPVGM
The normalized value in BLU units (SPOT analysis, Myo5 SH3) [3]: 267.7 BLU

MFNLLQKPEQPHQN
The normalized value in BLU units [4]: 204.0 BLU

MFTYFQEPPFPDLL
The normalized value in BLU units (SPOT analysis, Myo5 SH3) [3]: 239.3 BLU

MGLNKDVPHCPESL
The normalized value in BLU units (SPOT analysis, Myo5 SH3) [1]: 99.4 BLU

MKAYRANPPLPIDS
The normalized value in BLU units (SPOT analysis, Myo5 SH3) [1]: 123.1 BLU

MKPQKIAPKFPGTV
The normalized value in BLU units [2]: 415.8 BLU

MLFMKGSPSEPKCG
The normalized value in BLU units (SPOT analysis, Myo5 SH3) [1]: 250.7 BLU

MLFSWPYPEAPIEG
The normalized value in BLU units (SPOT analysis, Myo5 SH3) [3]: 126.4 BLU

MLKALFTPLIPVSF
The normalized value in BLU units [4]: 257.0 BLU

MLNEHGVPVVPSRE
The normalized value in BLU units [4]: 199.3 BLU

MLNSKHYPYIPVAN
The normalized value in BLU units [2]: 170.8 BLU

MPNLKRLPIPPLQD
The normalized value in BLU units [4]: 306.9 BLU

MQSKKEDPNRPKNL
The normalized value in BLU units [2]: 153.6 BLU

MRRCKDAPIEPPKY
The normalized value in BLU units [2]: 155.1 BLU

MSWCKERPECPLCR
The normalized value in BLU units [4]: 268.5 BLU

MTQPKKNPMEPKTD
The normalized value in BLU units [4]: 147.2 BLU

MTVPRNRPMAPFGT
The normalized value in BLU units [4]: 595.6 BLU

MYDRKVIPRMPWHD
The normalized value in BLU units (SPOT analysis, Myo5 SH3) [1]: 357.4 BLU

MYGSKFIPFGPKCQ
The normalized value in BLU units (SPOT analysis, Myo5 SH3) [1]: 289.9 BLU

NAIAMALPNEPYPA
The normalized value in BLU units (SPOT analysis, Myo5 SH3) [3]: 96.8 BLU

From article PMC314469, “Protein Interaction Networks by Proteome Peptide Scanning” (PLoS Biology, 2004)
